Structures can show the parent of a compound that is named as a salt.
Target: cGMP phosphodiesterase (PDE V) (Homo sapiens, UniProt O76074)
Experiment: Affinity to PDE V (IC50, inhibition of enzyme activity)
Type: biochemical
Conditions: concentration of the inhibitor needed to achieve 50% inhibition of the enzyme activity
Description: The biological activity of the compounds of the formula I can be determined by methods as described, for example, in WO 93/06104.
The affinity of the compounds according to the invention for cGMP and cAMP phosphodiesterase is determined by measuring their IC50 values (concentration of the inhibitor needed to achieve 50% inhibition of the enzyme activity).
The determinations can be carried out using enzymes isolated by known methods (for example W. J. Thompson et al., Biochem. 1971, 10, 311). The experiments can be carried out using a modified batch method of W. J. Thompson and M. M. Appleman (Biochem. 1979, 18 5228).

IC50 [µM] | SMILES
0.3 | COc1ccc(CNc2nc(-c3ccc(C(=O)O)cc3)nc3c2c2c(n3C(C)c3ccccc3)CCCC2)cc1Cl (stereo not shown) [Example 1, 4-[4-(3-chloro-4-methoxybenzylamino)-9-(1-phenylethyl)-6,7,8,9-tetrahydro-5H-1,3,9-triazafluoren-2-yl]benzoic acid]

Tested on: not given
Experiment: not given
Conditions: not given

melting point [°C] | SMILES
205 | COc1ccc(CNc2nc(CCCC(=O)O)nc3oc4c(c23)CCCC4)cc1Cl (as salt: salt) [Example 3, 4-[4-(3-chloro-4-methoxybenzylamino)-5,6,7,8-tetrahydrobenzo[4,5]furo[2,3-d]pyrimidin-2-yl]butyric acid]
> 250 | CCn1c2ccccc2c2c(NCc3ccc4c(c3)OCO4)nc(-c3ccc(C(=O)O)cc3)nc21 (as salt: sodium) [Example 7, 4-[4-(3,4-methylenedioxybenzylamino)-9-ethyl-9H-1,3,9-triazafluoren-2-yl]benzoic acid]
> 250 | COc1ccc(CNc2nc(-c3ccc(C(=O)O)cc3)nc3c2c2ccccc2n3C)cc1Cl (as salt: sodium) [Example 8, 4-[4-(3-chloro-4-methoxybenzylamino)-9-methyl-9H-1,3,9-triazafluoren-2-yl]benzoic acid]
233 to 235 | COc1ccc(CNc2nc(CN3CCC(C(=O)O)CC3)nc3oc4c(c23)CCCC4)cc1Cl [Example 4, 1-[4-(3-chloro-4-methoxybenzylamino)-5,6,7,8-tetrahydrobenzo[4,5]furo[2,3-d]pyrimidin-2-ylmethyl]piperidine-4-carboxylic acid]

The remaining lines, values behind:

SMILES | melting point [°C]
COc1ccc(CNc2nc(-c3ccc(C(=O)O)cc3)nc3c2c2c(n3C(C)c3ccccc3)CCCC2)cc1Cl (stereo not shown) (as salt: potassium) [Example 1, 4-[4-(3-chloro-4-methoxybenzylamino)-9-(1-phenylethyl)-6,7,8,9-tetrahydro-5H-1,3,9-triazafluoren-2-yl]benzoic acid] | 179
O=C(O)c1ccc(-c2nc(NCc3ccc4c(c3)OCO4)c3c4c(oc3n2)CCCC4)cc1 (as salt: salt) [Example 2, 4-[4-(3,4-methylenedioxybenzylamino)-5,6,7,8-tetrahydrobenzo[4,5]furo[2,3-d]pyrimidin-2-yl]benzoic acid] | 205
